Assay: Oxidative Stability Index (OSI) accelerated oxidation test in simple skin lipid model
Conditions: for onset of lipid oxidation over the untreated control (antioxidant effect): 1% idebenone, 1% or 2% idebenone linoleate in SLMM, p<0.01; for Avg. OSI (stdev) Hours at 80° C.: air bubbled, induction period, triplicate; for Calculated OSI Hours at 35° C.: estimated for 35° C. (skin surface temperature) with instrument software
Text: Oxidation of skin lipids can contribute to an aged appearance and other undesirable effects on skin condition. A simple skin lipid model (based on fatty acids found in skin) can be used to evaluate and predict the topical effectiveness of different compounds to inhibit skin lipid oxidation and improve the condition of skin (Narayanan, S.: Hunerbein, A.: Getie, M.; Jackel, A.; Neubert, R. H. Scavenging properties of metronidazole on free oxygen radicals in a skin lipid model system. J Pharm Pharmacol. 2007 August;59(8):1125-30).
Lipid oxidation can be measured by a number of analytical methods. An accelerated oxidation test such as the Oxidative Stability Index (OSI) is accepted as a method for determining both oxidative stability of lipids as well as antioxidant effectiveness (Bartee, S. D.; Kim, H. J.; Min, D. B. Effects of antioxidants on the oxidative stability of oils containing arachidonic, docosapentaaenoic and docosahexaenoic acids. J Amer Oil Chem Soc 2007 84: 363-68.; Official methods and recommended practices of the AOCS, 5th Edition, AOCS 1998).
In this example, the OSI method was used to assess the antioxidant activity of idebenone esters by measuring their ability to inhibit lipid oxidation in a mixture of fatty acids that are present in skin lipids. The composition of the simple skin lipid model tested is 74% linoleic acid; 21% oleic acid; 4% linolenic acid. The simple skin lipid model includes a large proportion of polyunsaturated and unsaturated fatty acids, which are prone to oxidation.
The untreated sample was composed of the simple skin lipid model (fatty acid mixture). The treated samples were prepared by dissolving the test materials in the simple skin lipid model at 1 or 2 wt % at room temperature. The treated and untreated lipid matrices were oxidized by heating the test solutions to 80° C. and bubbling air through the samples. The OSI (induction period in hours) was determined using an Oxidative Stability Instrument (Omnion, Inc. Rockville Md.) and the method of Bartee et al., 2007. Untreated and treated samples were tested in triplicate, and the average and standard deviation are included in Table 1. The OSI (induction period in hours) was also estimated for oxidation at 35° C. (simulating skin surface temperature) using the software supplied with the instrument.

Row | SMILES | onset of lipid oxidation over the untreated control (antioxidant effect) | Avg. OSI (stdev) Hours at 80° C. (1 wt % test material in SLMM) | Calculated OSI Hours at 35° C. (1 wt % test material in SLMM) [h] | Avg. OSI (stdev) Hours at 80° C. (2 wt % test material in SLMM) | Calculated OSI Hours at 35° C. (2 wt % test material in SLMM) [h]
1 | CCCCC/C=C\C/C=C\CCCCCCCC(=O)OCCCCCCCCCCC1=C(C)C(=O)C(OC)=C(OC)C1=O [idebenone linoleate, Idebenone Linoleate] | significantly delayed the onset of lipid oxidation | 2.50 (0.54) Hours | 56.2 | 3.22 (0.67) Hours | 72.4
2 | COC1=C(OC)C(=O)C(CCCCCCCCCCO)=C(C)C1=O [idebenone, Idebenone, reference compound] | significantly delayed the onset of lipid oxidation | 2.77 (0.14) Hours | 62.3 | – | –

Source: patent US7872047B2, “Esters of long-chain alcohols and preparation thereof” (Eastman Chemical Company, priority 2008, dated 2011)
